22 compounds from ChEMBL document CHEMBL5233214, “Tyrosinase inhibitors as potential antibacterial agents” (Eur J Med Chem, 2020) can be followed below.

In brackets after ≈: the same amount, converted by molar mass.

Assay [1] deals with T1, Tyrosinase (Agaricus bisporus, UniProt O42713).
T1 sequence (O42713 whole entry): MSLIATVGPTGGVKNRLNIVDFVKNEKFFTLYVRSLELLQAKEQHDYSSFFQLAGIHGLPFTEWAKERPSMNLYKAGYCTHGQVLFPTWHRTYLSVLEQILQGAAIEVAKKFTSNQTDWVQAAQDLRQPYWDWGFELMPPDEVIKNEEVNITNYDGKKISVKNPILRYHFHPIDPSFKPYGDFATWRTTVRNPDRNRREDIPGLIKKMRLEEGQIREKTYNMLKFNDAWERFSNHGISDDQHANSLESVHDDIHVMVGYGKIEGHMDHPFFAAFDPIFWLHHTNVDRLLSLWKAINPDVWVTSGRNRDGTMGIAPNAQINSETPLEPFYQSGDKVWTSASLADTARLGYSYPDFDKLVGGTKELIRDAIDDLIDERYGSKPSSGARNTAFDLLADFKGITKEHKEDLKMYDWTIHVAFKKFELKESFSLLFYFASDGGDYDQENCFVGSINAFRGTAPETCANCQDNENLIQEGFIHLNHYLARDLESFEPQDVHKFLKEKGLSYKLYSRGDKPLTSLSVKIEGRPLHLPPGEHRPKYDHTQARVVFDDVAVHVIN
In words: Inhibition of mushroom tyrosinase using L-DOPA as substrate incubated for 20 mins by microplate reader assay.

Assay [2] has as its system Staphylococcus epidermidis. Put plainly: Antibacterial activity against Staphylococcus epidermidis ATCC 14990 assessed as inhibition of bacterial growth incubated for 18 to 24 hrs by serial dilution method. It counts as functional. To be noted: time 18-24 hrs.
In assay [3] the test system is Staphylococcus aureus. Put plainly: Antibacterial activity against Staphylococcus aureus assessed as zone of inhibition. It counts as functional.
In assay [4] the test system is Bacillus cereus. Put plainly: Antibacterial activity against Bacillus cereus ATCC 27348 assessed as zone of inhibition at 10 ug per disk incubated for 12 hrs by paper-disk diffusion assay. It counts as functional. To be noted: read-out: IZ. (In general: Agar diffusion results depend on both activity and mobility in agar.)
Assay [5] concerns Bacillus subtilis. In words: Antibacterial activity against Bacillus subtilis ATCC 9372 assessed as zone of inhibition at 10 ug per disk incubated for 12 hrs by paper-disk diffusion assay. The format is functional. To be noted: read-out: IZ.
Assay [6] relates to Staphylococcus aureus. Put plainly: Antibacterial activity against Staphylococcus aureus ATCC 13301 assessed as zone of inhibition at 10 ug per disk incubated for 12 hrs by paper-disk diffusion assay. To be noted: read-out: IZ. The format is functional.
Assay [7] has as its system Staphylococcus epidermidis. In words: Antibacterial activity against Staphylococcus epidermidis ATCC 35984 assessed as inhibition of bacterial growth incubated for 24 hrs by two-fold serial dilution method. It counts as functional.
In assay [8] the target is T1, Tyrosinase. In words: Inhibition of mushroom tyrosinase using L-DOPA as substrate incubated for 10 mins by spectrophotometer assay.
Assay [9] deals with T1, Tyrosinase. In words: Inhibition of mushroom tyrosinase using L-DOPA as substrate pre-incubated for 10 mins followed by substrate addition and measured after 20 mins by microplate reader assay.
The test system of assay [10] is Staphylococcus aureus. In words: Antibacterial activity against Methicillin-resistant Staphylococcus aureus assessed as inhibition of bacterial growth by broth microdilution method. In general terms: In broth dilution the organism is exposed to a series of concentrations in liquid medium.
Assay [11] has as its system Staphylococcus aureus. In words: microbe, parasite or virus in culture. The settings on record: ATTC 25923.
Description: Antibacterial activity against Staphylococcus aureus ATTC 25923 assessed as inhibition of bacterial growth by broth microdilution method
Assay [12] deals with Staphylococcus epidermidis. Put plainly: microbe, parasite or virus in culture. The settings on record: TISTR 517.
Description: Antibacterial activity against Staphylococcus epidermidis TISTR 517 assessed as inhibition of bacterial growth by broth microdilution method
Assay [13] concerns the target T2, Tyrosinase (Homo sapiens, UniProt P14679).
T2 sequence (P14679 whole entry): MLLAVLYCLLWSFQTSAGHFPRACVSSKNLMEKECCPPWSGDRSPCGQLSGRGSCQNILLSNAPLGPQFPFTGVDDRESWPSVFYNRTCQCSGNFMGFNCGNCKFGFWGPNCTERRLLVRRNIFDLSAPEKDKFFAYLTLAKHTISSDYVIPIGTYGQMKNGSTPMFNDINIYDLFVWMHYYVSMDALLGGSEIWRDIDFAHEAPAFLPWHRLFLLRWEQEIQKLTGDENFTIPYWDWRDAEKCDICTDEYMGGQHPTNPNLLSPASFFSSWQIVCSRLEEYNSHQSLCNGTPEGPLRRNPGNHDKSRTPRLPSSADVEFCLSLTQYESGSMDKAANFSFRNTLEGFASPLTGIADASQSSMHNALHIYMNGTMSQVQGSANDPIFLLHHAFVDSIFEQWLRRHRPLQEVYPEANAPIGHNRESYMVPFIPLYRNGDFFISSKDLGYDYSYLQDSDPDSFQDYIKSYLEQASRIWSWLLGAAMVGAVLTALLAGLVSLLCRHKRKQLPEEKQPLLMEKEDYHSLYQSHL
Put plainly: Inhibition of tyrosinase (unknown origin) using DOPA as substrate incubated for 15 min by spectrophotometer assay.

Assay [14] has as its system Bacillus subtilis. In words: Antibacterial activity against Bacillus subtilis assessed as zone of inhibition at 300 ug/ml. It counts as functional. The settings on record: read-out: IZ.
The test system of assay [15] is Bacillus subtilis. Put plainly: Antibacterial activity against Bacillus subtilis ATCC 66333 assessed as inhibition of bacterial growth incubated for 18 to 24 hrs by serial dilution method. To be noted: time 18-24 hrs. The format is functional.
Assay [16] concerns Salmonella typhimurium. In words: Antibacterial activity against Salmonella enterica subsp. enterica serovar Typhimurium ATCC 14028 assessed as inhibition of bacterial growth incubated for 18 to 24 hrs by serial dilution method. It counts as functional. The settings on record: time 18-24 hrs.
For assay [17], the system named is Enterobacter cloacae. Put plainly: Antibacterial activity against Enterobacter cloacae ATCC 13047 assessed as inhibition of bacterial growth incubated for 18 to 24 hrs by serial dilution method. It counts as functional. The settings on record: time 18-24 hrs.
Assay [18] has as its system Proteus vulgaris. Put plainly: Antibacterial activity against Proteus vulgaris ATCC 13315 assessed as inhibition of bacterial growth incubated for 18 to 24 hrs by serial dilution method. It counts as functional. The settings on record: time 18-24 hrs.
For assay [19], the system named is Klebsiella pneumoniae. Put plainly: Antibacterial activity against Klebsiella pneumoniae ATCC 13883 assessed as inhibition of bacterial growth incubated for 18 to 24 hrs by serial dilution method. It counts as functional. The settings on record: time 18-24 hrs.
Assay [20] deals with Enterococcus faecalis. In words: Antibacterial activity against Enterococcus faecalis assessed as zone of inhibition. The format is functional, organism-based.
In assay [21] the test system is Fusobacterium nucleatum. In words: Antibacterial activity against Fusobacterium nucleatum ATCC 10953 assessed as inhibition of bacterial growth incubated for 48 hrs by microbroth dilution method. It counts as functional.
Assay [22] has as its system Staphylococcus aureus. In words: Antibacterial activity against Methicillin-resistant Staphylococcus aureus assessed as inhibition of bacterial growth by agar dilution method. The format is functional. A general note: Agar dilution tests growth on a series of plates holding different concentrations.

Compound `F[B-]1(F)Nc2ccccc2C2=[N+]1NC(c1ccncc1)C2` (configuration not stated) had an IC50 in assay [1] above 699 µM. The MIC in assay [2] turned out to be 37.5 mg/L (≈ 131 µM).

In assay [1], `CCn1cc(C(=O)O)c(=O)c2cc(F)c(N3CCNCC3)cc21` [NORFLOXACIN] gave an IC50 of 2.19 µM.

In the case of `CN[C@@H]1[C@H](O[C@H]2[C@H](O[C@H]3[C@H](O)[C@@H](O)[C@H](N=C(N)N)[C@@H](O)[C@@H]3N=C(N)N)O[C@@H](C)[C@]2(O)C=O)O[C@@H](CO)[C@H](O)[C@H]1O` [STREPTOMYCIN], the “inhibition zone (IZ)” value in assay [3] is on record as 20.3 mm.

In the case of `C=C(C)C(CC=C(C)C)Cc1c(O)cc(O)c2c1O[C@H](c1ccc(O)cc1O)CC2=O` (some centres not stated), the zone of inhibition at 10 µg/disc in assay [4], in assay [5] and in assay [6] was 14 mm in each case. Also, in [7], the MIC was found to be 3.12 mg/L (≈ 7.36 µM). This compound also gave an IC50 in assay [8] of 4.71 µM.

Regarding `CC(C)=CCC/C(C)=C/Cc1c(O)ccc(C=O)c1O`, the IC50 in assay [9] was above 729 µM. Also, the MIC in assay [10], in [11] and in [12] was below 8 mg/L in each case.

As for `C[C@@H]1O[C@@H](OC[C@H]2O[C@@H](Oc3c(-c4ccc(O)c(O)c4)oc4cc(O)cc(O)c4c3=O)[C@H](O)[C@@H](O)[C@@H]2O)[C@H](O)[C@H](O)[C@H]1O` [RUTIN], 1.4 µM corresponded to half-maximal inhibition in [13] (IC50).

In [13], `O=c1c(O[C@@H]2O[C@H](CO)[C@H](O)[C@H](O)[C@H]2O)c(-c2ccc(O)c(O)c2)oc2cc(O)cc(O)c12` [HYPEROSIDE] had an IC50 of 1.64 µM.

With `C[C@@H]1O[C@@H](OC[C@H]2O[C@@H](Oc3c(-c4ccc(O)cc4)oc4cc(O)cc(O)c4c3=O)[C@H](O)[C@@H](O)[C@@H]2O)[C@H](O)[C@H](O)[C@H]1O` [NICOTIFLOROSIDE], the half-inhibitory concentration (IC50) in assay [13] was 1.53 µM.

As for `CC1(C)S[C@@H]2[C@H](NC(=O)[C@H](N)c3ccccc3)C(=O)N2[C@H]1C(=O)O` [AMPICILLIN], in [14], the zone of inhibition at 300 µg/mL is 17.9 mm.

For the compound `C=C(C)C(CCC(C)(C)O)Cc1c(O)cc(OC)c2c1O[C@H](c1ccc(O)cc1O)CC2=O` (some centres not stated), it took 0.11 µM to reach half-maximal inhibition in [8] (IC50).

In assay [1], `F[B-]1(F)Nc2ccccc2C2=[N+]1NC(c1cccnc1)C2` (configuration not stated) had a half-maximal inhibitory concentration (IC50) of 350 µM. Moreover, in [2], the MIC came to 18.8 mg/L (≈ 65.5 µM).

On to `Nc1ccccc1C1=NNC(c2ccccn2)C1` (configuration not stated), for which, in assay [1], the IC50 was 420 µM. In addition, the MIC in assay [2], in assay [15], in assay [16], in assay [17], in [18] and in assay [19] was 18.8 mg/L (≈ 78.7 µM) throughout.

For GENTAMICIN, the inhibition zone (IZ) in assay [20] worked out at 10.6 mm.

For `C=C(C)C(CC=C(C)C)Cc1c(O)cc(OC)c2c1O[C@H](c1ccc(O)cc1O)CC2=O` (some centres not stated) [KURARINONE], the zone of inhibition at 10 µg/disc in assay [4], in assay [5] and in [6] was 14 mm each time. Moreover, in [8], the IC50 was 2.19 µM.

In the case of `O=c1cc2n(c3ccccc13)[B-](F)(F)[n+]1ccccc1-2`, the IC50 in assay [1] was above 741 µM. For the same compound, the MIC in assay [2], in assay [15], in [16], in assay [17], in assay [18] and in assay [19] was at most 18.8 mg/L throughout.

The compound `OCCc1ccccc1` [PHENYLETHYL ALCOHOL] had an IC50 in assay [13] of 2580 µM. For the same compound, the MIC in assay [21] worked out at 8 mg/L (≈ 65.5 µM).

In assay [1], `F[B-]1(F)Nc2ccccc2C2=[N+]1NC(c1ccccn1)C2` (configuration not stated) gave an IC50 of 350 µM. Also, the MIC in [2], in [15], in assay [16], in [17], in assay [18] and in [19] was 37.5 mg/L (≈ 131 µM) each time.

`CC(C)=CCC[C@@](C)(O)[C@@H]1CC=C(C)CC1`: the IC50 in [13] is 2860 µM. For the same compound, the MIC in assay [21] was 8 mg/L (≈ 36 µM).

For `COc1c(N2C[C@@H]3CCCN[C@@H]3C2)c(F)cc2c(=O)c(C(=O)O)cn(C3CC3)c12` [MOXIFLOXACIN], in [1], the IC50 is 2.99 µM.

`Nc1ccccc1C1=NNC(c2ccncc2)C1` (configuration not stated) showed an IC50 in assay [1] of 420 µM. In addition, in [2], the MIC came out at 37.5 mg/L (≈ 157 µM).

The compound `Nc1ccccc1C1=NNC(c2cccnc2)C1` (configuration not stated) had an IC50 in assay [1] of 420 µM. Besides, the MIC in assay [2] was found to be 150 mg/L (≈ 629 µM).

The compound `O=c1cc(-c2ccc(O)c(O)c2)oc2cc(O)cc(O)c12` [LUTEOLIN] had an IC50 in [13] of 2.14 µM. Besides, the MIC in assay [22] is 31.2 mg/L (≈ 109 µM).

The term IC50 denotes the midpoint of a concentration-inhibition curve. A high value points to a need for much substance.
